# Data published in patent publication EP1566447A1, “Glimepiride- and insulin-induced glycosylphosphatidylinositol-specific phospholipase C regulation” (priority 2004, dated 2005).
# Entries after “also recorded” stand apart in the source; their conditions may differ.
# Tests used:
# cabbage PLD = test: selectivity: PLD assay; format: biochemical; details: 50 µM
# Description: Hormone-sensitive lipase (HSL) and lipoprotein lipase (LPL) were measured using a radiolabeled triolein droplet emulsion as described in "Vertesy et al., (2002) Journal Antibiotics 55:480-494". Pancreatic lipase (PL) was determined by incubation of 0.25 mmol tributyrin in 2 ml of 5 mM Tris/HCl (pH 6.5), 6 mM sodium taurodeoxycholate, 150 mM NaCl, 1 mM CaCl2 with porcine PL and colipase in the same buffer using a recording pH stat (stirring at 1000 rpm at 25°C) with the pH adjusted to 6.5. PC-PLC was assayed by incubation of 0.2 ml of 10 mM dipalmitoyllecithin, 0.1 ml of 10 mM SDC and 0.1 ml of 0.03 M CaCl2 with bacterial PC-PLC (in 50 mM Tris/HCl, pH 7.5, 0.1 % BSA) for 10 min at 37°C. The reaction was terminated by addition of 0.1 ml of 50 % TCA and subsequently of 2.5 ml of […]. After centrifugation (1500xg, 15 min), 0.2-ml portions of the upper methanol/water phase (~ 1.33 ml) was removed, supplemented with 0.5 ml of 60 % HClO4, then heated at 170°C for 1 h and finally analyzed for inorganic phosphate. Mammalian PI-PLC was measured by incubation of 0.1 ml of 10 mM PI, 0.1 ml of 0.8 % sodium deoxycholate, 0.1 % BSA, 0.2 ml of 100 mM sodium borate (pH 7.5) and rat liver PI-PLC for 20 min at 37°C. The reaction was terminated and further processed as described for the PC-PLC. […] Radioactive phosphatidic acid was detected by phosphorimaging. […]
# caveolin-1 = test: dissociation of signaling proteins from caveolin (caveolin-1 immunoprecipitates); format: cell-based, rat
# Description: Solubilized DIGs (see above, 5-20 µg protein) were precleared by incubation with protein A/G-Sepharose and subsequent centrifugation (10,000xg, 5 min). The supernatant was incubated with anti-caveolin-1 antibodies (1:1000) preadsorbed on protein A/G-Sepharose in 1 ml of 10 mM Tris/HCl (pH 7.4), 150 mM NaCl, 1 % TX-100 for 1 h at 4°C. The immune complexes were washed twice with the same buffer and then twice with buffer lacking TX-1 00 and finally subjected to SDS-PAGE performed in the absence of β-mercaptoethanol. The recovery of immunoprecipitated caveolin was normalized by homologous immunoblotting with anti-caveolin antibodies of the same blot following stripping of the membrane.
# Polypeptides separated by SDS-PAGE were transferred to polyvinylidene difluoride membranes using the semidry procedure as described in "Müller, G. et al., (2001) Mol. Cell. Biol. 21: 4553-4567". Washed membranes were incubated anti-caveolin-1 (1:2000), anti-pp59^Lyn (1:1250), anti-aP (1:500), anti-5'-Nuc (1:750) and anti-IRS-1 (1:2000) antibodies for 4 h at 15°C. Washed membranes were incubated with horseradish peroxidase-coupled secondary goat anti-mouse (1:2000) or goat anti-rabbit IgG (1:4000) antibodies. Labeled proteins were visualized by enhanced chemiluminescence.
# Of signaling proteins from caveolin. […]
compound,measurement,setting,value
"CCCCCCCCCCCCP1(=O)O[C@@H]2[C@H](O)[C@@H](O)[C@H](O)[C@@H](O)[C@@H]2O1 (mixture of isomers) [GPI-2350, myo-inositol-1,2-cyclo-dodecylphosphonic acid]",effect on phospholipase activity,cabbage PLD,not significantly affected
same,effect on induced dissociation of pp59^Lyn and Gce1 from caveolin,"caveolin-1; 50 µM, Fig. 6 Panel A",almost complete blockade; also recorded: completely abrogated
same,IC50,"caveolin-1; abrogation of insulin- and glimepiride-induced losses, Fig. 6 Panel B",5 to 10 µM
